The values that follow come from patent publication US11136347B2, “Crystalline forms of a fatty acid bile acid conjugate, preparation method thereof and use thereof” (Crystal Pharmaceutical (Suzhou) Co., Ltd., priority 2017, dated 2021).

Assay type in all cases: physicochemical
A short description of data set [1]: Hygroscopicity study by dynamic vapor sorption (DVS). The settings on record: for The definition of hygroscopicity: Chinese Pharmacopoeia 2015 edition, 25° C. +/−1° C.; for The definition of hygroscopicity / Weight gain under 80% Relative Humidity: 80% RH; for Weight gain under 80% Relative Humidity: DVS. Here is the method:
Dynamic vapor sorption (DVS) was applied to test hygroscopicity of Form CS3 and the solid disclosed in CN100386339C with about 15 mg of samples. […] DVS plot of test hygroscopicity of Form CS3 is depicted in FIG. 1G. What's more, the crystalline form of Form CS3 didn't change after DVS test, which is depicted in FIG. 1H.
Dynamic vapor sorption (DVS) was applied to test hygroscopicity of Form CS2 with about 10 mg of samples. […] As depicted in FIG. 1I, weight gain of the solid disclosed in prior art under 80% RH is 2.44%. The hygroscopicity of Form CS2 is lower than that of prior art.
Dynamic vapor sorption (DVS) was applied to test hygroscopicity of Form CS5 with about 8 mg of samples. […] As depicted in FIG. 1I, weight gain of the solid disclosed in prior art under 80% RH is 2.44%. The hygroscopicity of Form CS5 is lower than that of prior art.
Dynamic vapor sorption (DVS) was applied to test hygroscopicity of Form CS8 with about 7 mg of sample. […] As depicted in FIG. 1I, weight gain of the solid disclosed in prior art under 80% RH is 2.44%. The hygroscopicity of Form CS8 is lower than that of prior art. […] The XRPD patterns before and after DVS were shown in FIG. 4F, top: the XRPD pattern before DVS; bottom: XRPD pattern after DVS.

Data set [2] can be described thus: Stability study: storage in open dishes, crystalline form checked by XRPD. The settings on record: for Form change: XRPD. The method, then: Solid samples of Form CS3 were stored under different conditions of 25° C./60% RH and 40° C./75% RH in open dishes for one year. Crystalline form was checked by XRPD.
Form CS8 were stored in open dishes under 25° C./60% RH, 40° C./75% RH and 60° C./75% RH conditions for three weeks, and sampled for XRPD test.

Data set [3] in a line: Particle size distribution (Microtrac S3500 laser particle size analyzer, wet mode). The settings on record: after ultrasonication for 30 seconds, dispersion medium Isopar G. The method, then:
The particle size distribution data in the present disclosure were acquired by an S3500 laser particle size analyzer of Microtrac. Microtrac S3500 is equipped with an SDC (Sample Delivery Controller). The test was carried out in wet mode, and the dispersion medium is Isopar G. The parameters are as follows:
The particle size distribution of Form CS3 and the solid disclosed in CN100386339C were tested after ultrasonication for 30 seconds. The average particle size of Form CS3 is 26.3 μm, and D90 is 62.8 μm. The average particle size and D90 of the solid disclosed in prior art are 452.5 μm and 870.3 μm. Compared with prior art, Form CS3 has smaller particle size, which increases the specific surface area of the drug substance, improves the dissolution rate of drug, thereby facilitating drug absorption and further improving the bioavailability of the drug.
The particle size distribution of Form CS2 and the solid disclosed in CN100386339C were tested after ultrasonication for 30 seconds. An average particle size of Form CS2 is 41.9 μm, and D90 is 87.5 μm, while the average particle size and D90 of the solid disclosed in prior art are 452.5 μm and 870.3 μm. Compared with prior art, Form CS2 has smaller particle size, which increases the specific surface area of the drug substance, improves the dissolution rate of drug, thereby facilitating drug absorption and further improving the bioavailability of the drug.

Setting [4] is: listed as solid disclosed in prior art.

`CCCCCCCCCCCCCCCCCCCC(=O)N[C@H]1CC[C@@]2(C)[C@@H](C1)C[C@@H](O)[C@@H]1[C@@H]2C[C@H](O)[C@]2(C)[C@@H]([C@H](C)CCC(=O)O)CC[C@@H]12` [Form CS5, 3β-arachidylamido-7α,12α-dihydroxy-5β-cholan-24-oic acid]: in data set [1], the “The definition of hygroscopicity” value was “slightly hygroscopic (Increase in mass is less than 2 percent and equal to or greater than 0.2 percent)”; the “Weight gain under 80% Relative Humidity” value was determined as 0.35%; the “Form change before and after DVS test (XRPD)” value was “No form change”. For the same compound, in data set [2] (25° C./60% RH), the “Time for which the crystalline form doesn't change (stable)” value is reported as “at least 3 weeks”. The “Time for which the crystalline form doesn't change (stable)” value in data set [2] (40° C./75% RH) is on record as “at least 3 weeks”. Further, the “Time for which the crystalline form doesn't change (stable)” value in data set [2] (60° C./75% RH) was “at least 3 weeks”. In data set [3], the “MV (average particle diameter calculated by volume)” value is on record as 75.6 μm.
`CCCCCCCCCCCCCCCCCCCC(=O)N[C@H]1CC[C@@]2(C)[C@@H](C1)C[C@@H](O)[C@@H]1[C@@H]2C[C@H](O)[C@]2(C)[C@@H]([C@H](C)CCC(=O)O)CC[C@@H]12` [Solid disclosed in CN100386339C, 3β-arachidylamido-7α,12α-dihydroxy-5β-cholan-24-oic acid, reference compound]: in data set [1] (setting [4]), the “The definition of hygroscopicity” value is “hygroscopic (Increase in mass is less than 15 percent and equal to or greater than 2 percent)”. For the same compound, the “Weight gain under 80% Relative Humidity” value in data set [1], in data set [1] (listed as amorphous solid), in data set [1] (setting [4]) and in data set [1] (listed as solid of prior art) was 2.44% in each case. This compound also had a D10 in data set [3] of 95.0 μm. Moreover, the D50 in data set [3] is reported as 398.8 μm. The D90 in data set [3], in data set [3] (listed as prior art) and in data set [3] (setting [4]) was 870.3 μm each time. For the same compound, the “MV (average particle diameter calculated by volume)” value in data set [3], in data set [3] (listed as prior art) and in data set [3] (setting [4]) was 452.5 μm throughout.
Take `CCCCCCCCCCCCCCCCCCCC(=O)N[C@H]1CC[C@@]2(C)[C@@H](C1)C[C@@H](O)[C@@H]1[C@@H]2C[C@H](O)[C@]2(C)[C@@H]([C@H](C)CCC(=O)O)CC[C@@H]12` [Form CS2, 3β-arachidylamido-7α,12α-dihydroxy-5β-cholan-24-oic acid]: in data set [1], the “The definition of hygroscopicity” value is “slightly hygroscopic (Increase in mass is less than 2 percent and equal to or greater than 0.2 percent)”; the “Weight gain under 80% Relative Humidity” value was determined as 0.46%; the “Form change before and after DVS test (XRPD)” value was “No form change”. For the same compound, in data set [2] (25° C./60% RH), the “Time for which the crystalline form doesn't change (stable)” value was “at least 3 weeks”. For the same compound, in data set [2] (40° C./75% RH), the “Time for which the crystalline form doesn't change (stable)” value was “at least 3 weeks”. The “Time for which the crystalline form doesn't change (stable)” value in data set [2] (60° C./75% RH) is given as “at least 3 weeks”. In data set [3], the D10 was determined as 9.7 μm, the D50 turned out to be 27.9 μm, the D90 is 87.5 μm and the “MV (average particle diameter calculated by volume)” value is 41.9 μm.
On to `CCCCCCCCCCCCCCCCCCCC(=O)N[C@H]1CC[C@@]2(C)[C@@H](C1)C[C@@H](O)[C@@H]1[C@@H]2C[C@H](O)[C@]2(C)[C@@H]([C@H](C)CCC(=O)O)CC[C@@H]12` [Form CS8, 3β-arachidylamido-7α,12α-dihydroxy-5β-cholan-24-oic acid], for which the “Weight gain under 80% Relative Humidity” value in data set [1] came out at 0.40%. For the same compound, the “Form change before and after DVS test (XRPD)” value in data set [1] is listed as “No form change”. Besides, the Form change entry in data set [2] (25° C./60% RH, three weeks) is recorded as “no form change”; in data set [2] (40° C./75% RH, three weeks), “no form change”; in data set [2] (60° C./75% RH, three weeks), “no form change”.
With `CCCCCCCCCCCCCCCCCCCC(=O)N[C@H]1CC[C@@]2(C)[C@@H](C1)C[C@@H](O)[C@@H]1[C@@H]2C[C@H](O)[C@]2(C)[C@@H]([C@H](C)CCC(=O)O)CC[C@@H]12` [Form CS3, 3β-arachidylamido-7α,12α-dihydroxy-5β-cholan-24-oic acid], in data set [1], the “Weight gain under 80% Relative Humidity” value turned out to be 0.15%; the “Form change before and after DVS test (XRPD)” value is recorded as “didn't change”. Further, the “Time for which the crystalline form doesn't change (stable)” value in data set [2] (25° C./60% RH) is “at least 3 weeks”. Also, the Form change entry in data set [2] (25° C./60% RH, one year) is “No form change”. The “Time for which the crystalline form doesn't change (stable)” value in data set [2] (40° C./75% RH) was “at least 3 weeks”. Besides, the Form change entry in data set [2] (40° C./75% RH, one year) was “No form change”. The “Time for which the crystalline form doesn't change (stable)” value in data set [2] (60° C./75% RH) was “at least 3 weeks”. Also, in data set [3], the D10 amounted to 2.0 μm, the D50 is reported as 12.3 μm, the D90 came to 62.8 μm and the “MV (average particle diameter calculated by volume)” value is recorded as 26.3 μm.
